Earlier results in article PMC5580352 (Journal of medicinal chemistry, 2017).

Conditions: 1 week of administration of 20 mg/kg

For `CCCC[S+]([O-])c1sc2nc(-c3cccs3)cc(-c3ccccc3)c2c1N` (stereo not shown) [Compound 1, 2-(butylsulfinyl)-4-phenyl-6-(thiophen-2-yl)thieno[2,3-b]pyridin-3-amine], the adverse effects is listed as “no adverse effects on weight, activity, blood counts or blood chemistry”.
